# Read-outs that look alike come from different tables or passages of the source.
# How the values were obtained:
# [1] = target: T1, beta-catenin/TCF4 engagement (Homo sapiens, UniProt P35222); assay: Nano-BRET target engagement assay (B-cat-Halo & TCF4-Luc in HEK293 cells); format: cell-based
# T1 construct: expressed in transfected cells; host or cells: HEK293
# T1 sequence (P35222 1-781): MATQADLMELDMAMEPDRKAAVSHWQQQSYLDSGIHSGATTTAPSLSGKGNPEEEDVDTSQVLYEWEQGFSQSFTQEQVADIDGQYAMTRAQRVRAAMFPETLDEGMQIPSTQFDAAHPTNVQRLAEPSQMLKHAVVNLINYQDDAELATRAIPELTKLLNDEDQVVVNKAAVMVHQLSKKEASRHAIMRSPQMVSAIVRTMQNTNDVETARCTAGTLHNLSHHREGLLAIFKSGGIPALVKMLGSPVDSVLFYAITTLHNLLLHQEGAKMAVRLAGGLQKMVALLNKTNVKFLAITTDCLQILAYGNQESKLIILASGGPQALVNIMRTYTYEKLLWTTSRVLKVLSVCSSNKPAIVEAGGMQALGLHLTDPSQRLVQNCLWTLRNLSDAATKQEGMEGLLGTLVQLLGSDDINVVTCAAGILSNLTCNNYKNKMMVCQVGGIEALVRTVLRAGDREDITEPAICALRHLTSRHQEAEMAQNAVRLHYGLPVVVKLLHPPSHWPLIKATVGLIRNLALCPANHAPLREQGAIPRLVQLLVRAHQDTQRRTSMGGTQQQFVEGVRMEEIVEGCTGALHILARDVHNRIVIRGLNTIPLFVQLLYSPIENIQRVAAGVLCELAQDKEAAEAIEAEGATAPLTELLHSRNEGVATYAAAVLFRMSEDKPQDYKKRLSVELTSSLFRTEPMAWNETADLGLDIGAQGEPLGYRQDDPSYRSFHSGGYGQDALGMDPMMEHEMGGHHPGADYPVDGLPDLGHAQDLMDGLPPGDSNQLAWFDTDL
# [2] = system: TCF/LEF luciferase Reporter in DLD1 cells; assay: TCF reporter assay (DLD1 TCF/LEF luciferase reporter, Bright-Glo); format: cell-based
# Method in brief: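 Readouts: Bright-Glo luciferase for reporter signal and CellTiter-Glo for cell viability, with absolute IC50 derived. The reporter clone came from lentiviral TCF/LEF-luciferase transduction of DLD1 cells, seeded 5000 cells/well in RPMI with 4% FBS and exposed overnight to serially diluted compounds.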
# [3] = system: Axin2 and Myc; assay: Gene expression in cells (FIG. 1); format: cell-based
# Description: FIG. 1. Provided agents can modulate gene expression in cells.
# [4] = system: PLOD2 and LCOR; assay: Expression of beta-catenin-independent genes (FIG. 2); format: cell-based
# [5] = target: T2, full-length beta-Catenin (Uniprot ID P35222) (Homo sapiens, UniProt P35222); assay: Fluorescence polarization IC50 (beta-catenin / 5FAM-TCF4 10-53 competition); format: binding
# T2 construct: 10 nM full-length beta-Catenin (Uniprot ID P35222)
# T2 sequence (P35222 1-781): T1 sequence (P35222 1-781)
# [6] = CHI Log D procedure; format: physicochemical; details: pH 7.4
# [7] = system: DLD1; assay: Reporter assay (e.g., DLD1 reporter assay) (FIG. 3); format: cell-based; details: compared to a control peptide I-796
# Description: FIG. 3. Provided technologies can effectively modulate expression.
# Various technologies can be utilized for characterizing and/or assessing provided technologies (e.g., agents (e.g., various peptides), compositions, methods, etc.) in accordance with the present disclosure. As described herein, in some embodiments, a useful technology is or comprises fluorescence polarization. In some embodiments, a useful technology assesses Log P or Log D. In some embodiments, a useful technology is or comprises a CHI Log D assay. In some embodiments, a useful technology assesses solubility. In some embodiments, a useful technology is or comprises NanoBRET. In some embodiments, a useful technology is or comprises a reporter assay (e.g., DLD1 reporter assay). In some embodiments, a useful technology is or comprises alphascreen. Certain useful protocols are described in the Examples. Those skilled in the art appreciate that suitable adjustments may be made to such protocols, e.g., according to specific conditions, agents, purposes, etc.
# [8] = Solubility in PBS; format: physicochemical
# Method in brief: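 Steps: ultracentrifuge the peptide PBS solution, inject the supernatant on HPLC, inject a 50 μM peptide DMSO solution as reference, then calculate solubility as area ratio (PBS/DMSO) × 50 uM.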
# [9] = Peptide + ST-Protein (SAINT-Protein lipid), read-out: Nano-BRET Abs IC50
# [10] = Peptide only, read-out: Nano-BRET Abs IC50
# [11] = absolute IC50, read-out: NanoBRET Abs IC50
# [12] = Peptide + ST-Protein (SAINT-Protein lipid), read-out: TCF Reporter Assay Abs IC50
# [13] = Peptide only, read-out: TCF Reporter Assay Abs IC50
# [14] = fluorescence polarization, beta-catenin, read-out: FP EC50
structure (smiles),measurement,setting,value
"CC(=O)N1CCC[C@]12CC=CCCCC1(CCCC=CCCCOC(=O)N3CC[C@@](C(=O)N[C@@H](Cc4ccccc4Cl)C(=O)N[C@@H](Cc4csc5ccccc45)C(=O)N[C@@H](CCC(N)=O)C(N)=O)(C3)NC(=O)[C@H]([C@@H](C)O)NC(=O)[C@H](Cc3ccccc3)NC(=O)[C@H](C)NC(=O)[C@H](C)NC(=O)[C@H](CN(CC(=O)O)CC(F)(F)F)NC(=O)[C@H](CC(=O)O)NC1=O)NC(=O)[C@H](CC(C)(C)C)NC(=O)[C@H](CC(=O)O)NC2=O (stereo partly drawn) [I-922, Ac-PL3-Asp-Npg-B5-Asp-TfeGA-Ala-Ala-Phe-Thr-PyrS2-2C1F-BztA-Gln-NH2]",IC50,[1]; [9],1 µM
same,IC50,[1]; [10],6 µM
same,IC50,[1]; [11],2.7 µM
same,IC50,[1]; read-out: NanoBRET Abs IC50,2.7 µM
same,IC50,[1]; read-out: NanoBRET IC50,2.3 µM
same,IC50,[2]; [12],0.2 µM
same,IC50,[2]; [13],5 µM
same,expression of various nucleic acids such as Axin2 and Myc,[3],can effectively reduce expression
same,expression of beta-catenin-independent genes including beta-catenin-independent WNT target genes such as PLOD2 and LCOR,[4],do not significantly impact expression
same,IC50,[5]; [14],0.012 µM
same,IC50,[5]; read-out: beta-Catenin FP IC50,0.012 µM
same,CHI Log D,[6],2.344
same,expression in a report assay,[7],can effectively reduce expression
same,Solubility,[8],32 µM
"CC(=O)N1CCC[C@]12CC=CCCCC1(CCCC=CCCCOC(=O)N3CC[C@@](C(=O)N[C@@H](Cc4ccsc4)C(=O)N[C@@H](Cc4csc5ccccc45)C(=O)N[C@@H](CCC(N)=O)C(N)=O)(C3)NC(=O)[C@H](CC(C)C)NC(=O)[C@H](Cc3ccccc3)NC(=O)[C@H](C)NC(=O)[C@H](C)NC(=O)[C@H](CN(CC(=O)O)CC(F)(F)F)NC(=O)[C@H](CC(=O)O)NC1=O)NC(=O)[C@H](CC(C)(C)C)NC(=O)[C@H](CC(=O)O)NC2=O (stereo partly drawn) [I-849, Ac-PL3-Asp-Npg-B5-Asp-TfeGA-Ala-Ala-Phe-Leu-PyrS2-3Thi-BztA-Gln-NH2]",IC50,[1]; [9],0.7 µM
same,IC50,[1]; [10],5 µM
same,IC50,[1]; [11],2.6 µM
same,IC50,[1]; read-out: NanoBRET Abs IC50,3.6 µM
same,IC50,[1]; read-out: NanoBRET IC50,2.3 µM
same,IC50,[2]; [12],0.2 µM
same,IC50,[2]; [13],5 µM
same,IC50,"[2]; read-out: DLD1 4% Abs IC50, DLD1 4%",1.1 µM
same,expression of various nucleic acids such as Axin2 and Myc,[3],can effectively reduce expression
same,expression of beta-catenin-independent genes including beta-catenin-independent WNT target genes such as PLOD2 and LCOR,[4],do not significantly impact expression
same,IC50,[5]; [14],0.007 µM
same,IC50,[5]; read-out: beta-Catenin FP IC50,0.008 µM
same,CHI Log D,[6],2.393
same,expression in a report assay,[7],can effectively reduce expression

# Source: patent US20240116985A1, “STAPLED PEPTIDES AND METHODS THEREOF” (priority 2020, published 2024)
